The data set in a line: UV absorption (UV/Vis spectrometer, standard USP 197U testing procedures). It counts as physicochemical. From the text:
UV absorption of glyceryl/acid or glycol/acid compounds and compositions containing the same can be determined by UV absorption assays that are generally known to those of ordinary skill in the art.

Turning to `O=C(OCC(O)CO)c1ccccc1O` (centres unmarked) [Glyceryl Mono-Salicylate], the “Molar Absorptivity (λ max 238 nm)” value (λ max 238 nm) amounted to 12065.7. Besides, where the note is “λ max 307 nm”, the “Molar Absorptivity (λ max 307 nm)” value stood at 6126.4.

Values taken from patent US12285509B2, “Glyceryl and glycol acid compounds” (MARY KAY INC., priority 2006, dated 2025).
